Source: article PMC9404989, “Design and Evaluation of Short Bovine Lactoferrin-Derived Antimicrobial Peptides against Multidrug-Resistant Enterococcus faecium” (Antibiotics, 2022)
Values after ≈ are worked out from the molar mass of the structure shown. Like-named read-outs stand apart in the source and are kept apart here. No end group written: not given here.

Experiments:
E. faecium D25 = experiment: microbe, parasite or virus in culture; format: cell-based, Enterococcus faecium
Protocol: (§1) To determine the MICs of peptides, we used the broth microdilution method described by the Clinical and Laboratory Standards Institute. We made serial dilutions of 10× concentration (10 µL) for each peptide in duplicates in 96-well plates (Cat No. 3595, Corning, New York, NY, USA). We added 90 µL of logarithmic-phase bacteria at 5 × 10^5 CFU/mL (in BHI media) to the peptides and then incubated the plates at 37 °C for 18 h. We measured the OD600 absorbance readings using the Spectra Max i3x spectrophotometer (Molecular Devices, San Jose, CA, USA) and determined the MIC as the peptide concentration that inhibits the growth of bacteria.

E. faecium strain C68 [1] = experiment: microbe, parasite or virus in culture; format: cell-based, Enterococcus faecium
Protocol: as §1

E. faecium D24 = experiment: microbe, parasite or virus in culture; format: cell-based, Enterococcus faecium
Protocol: as §1

E. faecium E007 = experiment: microbe, parasite or virus in culture; format: cell-based, Enterococcus faecium; details: for MIC: Enterococcus faecium
Protocol: as §1

E. faecium D29 = experiment: microbe, parasite or virus in culture; format: cell-based, Enterococcus faecium
Protocol: as §1

E. faecium D14 = experiment: microbe, parasite or virus in culture; format: cell-based, Enterococcus faecium
Protocol: as §1

E. faecium strain C68 [2] = experiment: microbe, parasite or virus in culture; format: cell-based, Enterococcus faecium; details: for MIC: Enterococcus faecium, C68; for MIC + CaCl2 (2.5 mM) / MIC + MgSO4 (1 mM) / MIC + NaCl (150 mM) / MIC + ZnSO4 (8 µM): strain C68, 18 h
Protocol: as §1
To investigate the activity of peptides in various salt concentrations, we included physiologically relevant salts in the BHI medium.

E. faecium WC176 = experiment: organism not typed; format: cell-based, Enterococcus faecium; details: for MIC: read-out: MIC WC176
Protocol: as §1

[3] = system: E. faecium strain C68 on porcine skin; experiment: Ex vivo porcine skin infection assay; design: species or system Enterococcus faecium; details: exponential cells
Text: We evaluated the efficacy of designed lactoferrin AMPs in an ex vivo porcine skin model previously described with minor modifications. We first cleaned the shaved porcine skin (Fisher Scientific, Hampton, NH, USA) with 70% ethanol and then water, and glued polyethylene tubing (5 mm) (Nalgene VWR 228-0170, Radnor, PA, USA) to the skin samples with cyanoacrylate glue (Fisher Scientific, Hampton, NH, USA). Using disposable razors, we cut each piece of skin glued to the tube and inserted it into a 12-well tissue culture plate (Falcon, Cat No. 353182). We infected each skin with 1 × 10^6 CFU of exponential or persister E. faecium strain C68 cells in a total volume of 10 µL. Following an incubation of 1 h at 37 °C, we treated the skin with 50 µL with 5L and 6L at concentrations of 10× or 1× MIC. After an additional 4 h of incubation at 37 °C, we washed each tubing well with 250 µL of PBS (pH 7.4) containing 0.05% Triton X-100 to remove bacteria. After serially diluting the bacterial sample, we counted their CFUs.

E. faecalis OG1RF = experiment: MIC assay, E. faecalis OG1RF; format: cell-based; details: rifampin and fusidic acid resistant
Protocol: as §1

E. faecalis MMH594 = experiment: microbe, parasite or virus in culture; format: cell-based; details: for MIC E. faecalis MMH594: MMH594, 18 h
Protocol: as §1

E. faecalis V583 = experiment: microbe, parasite or virus in culture; format: cell-based; details: for MIC E. faecalis V583: V583, 18 h
Protocol: as §1

S. aureus MW2 = experiment: microbe, parasite or virus in culture; format: cell-based, Staphylococcus aureus; details: for MIC S. aureus MW2: MW2, 18 h
Protocol: as §1

[4] = HPLC retention time on C18 reverse-phase column; format: physicochemical
Text: Table 1 Physical parameters and the minimal inhibitory concentration (µg/mL) of designed peptides against E. faecium. | column: rT ^f (min)

[5] = system: E. faecium strain C68 established biofilms; format: cell-based, Enterococcus faecium; details: 24 h established biofilms, 24 h treatment, crystal violet
Protocol: We prepared exponential cultures of E. faecium strain C68 (adjusted to 1 × 10^8 CFU/mL) in BHI media (supplemented with 0.2% glucose) from overnight grown cultures. We added 100 µL of the bacterial culture to wells of flat-bottomed 96-well polystyrene microtiter plates (Cat No. 3595, Corning, NY, USA). We then incubated the plates at 37 °C for 24 h in static conditions to allow biofilm formation. After incubation, we carefully pipetted out the media and washed the wells with PBS (Gibco, Waltham, MA, USA) to remove loosely attached planktonic cells. We treated the established biofilms in each well with 10 µL of serially diluted 10× peptide solution, followed by the addition of 90 μL of BHI media (supplemented with 0.2% glucose). The plates were incubated for another 24 h at 37 °C before processing for biomass and live-cell contents. We quantitated the concentration of peptide that disrupts 50% of established biofilms (MBEC50).

[6] = system: E. faecium E007 established biofilms; format: cell-based, Enterococcus faecium

Row | Compound | MIC E. faecalis OG1RF (E. faecalis OG1RF) [µg/mL] | MIC E. faecalis MMH594 (E. faecalis MMH594) [µg/mL] | MIC E. faecalis V583 (E. faecalis V583) [µg/mL] | MIC EF C68 (E. faecium strain C68 [1]; strain C68, 18 h) [µg/mL] | MIC Media Only (E. faecium strain C68 [1]; strain C68, 18 h) [µg/mL] | MIC + CaCl2 (2.5 mM) (E. faecium strain C68 [2]) [µg/mL] | MIC + MgSO4 (1 mM) (E. faecium strain C68 [2]) [µg/mL] | MIC + NaCl (150 mM) (E. faecium strain C68 [2]) [µg/mL] | MIC + ZnSO4 (8 µM) (E. faecium strain C68 [2]) [µg/mL] | MIC S. aureus MW2 (S. aureus MW2) [µg/mL] | rT (HPLC retention time) [4] [min] | further results
1 | CC1(C)S[C@@H]2[C@H](NC(=O)[C@H](N)c3ccccc3)C(=O)N2[C@H]1C(=O)O [Ampicillin, reference compound] |  |  |  |  |  |  |  |  |  |  |  | MIC (E. faecium D25; Enterococcus faecium, D25; read-out: MIC D25): > 32 µg/mL; MIC (E. faecium strain C68 [1]; Enterococcus faecium, C68, 18 h; read-out: MIC EF C68): > 32 µg/mL; MIC (E. faecium strain C68 [1]; Enterococcus faecium, C68; BHI media only, 37 °C, 18 h; read-out: MIC Media Only): > 32 µg/mL; MIC (E. faecium D24; Enterococcus faecium, D24; read-out: MIC D24): > 32 µg/mL; MIC (E. faecium E007; E007, tetracycline-resistant strain, read-out: MIC E007): > 32 µg/mL; MIC (E. faecium D29; Enterococcus faecium, D29; read-out: MIC D29): > 32 µg/mL; MIC (E. faecium D14; Enterococcus faecium, D14; read-out: MIC D14): ≥ 32 µg/mL; MIC (E. faecium strain C68 [2]; BHI + 8 µM ZnSO4, read-out: MIC + ZnSO4 (8 µM)): > 32 µg/mL; MIC (E. faecium strain C68 [2]; BHI + 1 mM MgSO4, read-out: MIC + MgSO4 (1 mM)): > 32 µg/mL; MIC (E. faecium strain C68 [2]; BHI + 2.5 mM CaCl2, read-out: MIC + CaCl2 (2.5 mM)): > 32 µg/mL; MIC (E. faecium strain C68 [2]; BHI + 150 mM NaCl, read-out: MIC + NaCl (150 mM)): > 32 µg/mL; MIC (E. faecium WC176): > 32 µg/mL
2 | CNC(C)C1CCC(N)C(OC2C(N)CC(N)C(OC3OCC(C)(O)C(NC)C3O)C2O)O1 (stereo not drawn) [Gentamicin, reference compound] |  |  |  |  |  |  |  |  |  |  |  | bacterial burden, control antibiotic [3]: ineffective in reducing the bacterial burden
3 | CN[C@H](CC(C)C)C(=O)N[C@H]1C(=O)N[C@@H](CC(N)=O)C(=O)N[C@H]2C(=O)N[C@H]3C(=O)N[C@H](C(=O)N[C@H](C(=O)O)c4cc(O)cc(O)c4-c4cc3ccc4O)[C@H](O)c3ccc(c(Cl)c3)Oc3cc2cc(c3O[C@@H]2O[C@H](CO)[C@@H](O)[C@H](O)[C@H]2O[C@H]2C[C@](C)(N)[C@H](O)[C@H](C)O2)Oc2ccc(cc2Cl)[C@H]1O [Vancomycin, reference compound] |  |  |  |  |  |  |  |  |  |  |  | MIC (E. faecalis OG1RF; Enterococcus faecalis, OG1RF): > 32 µg/mL; MIC (E. faecalis MMH594; Enterococcus faecalis, MMH594, read-out: MIC E. faecalis MMH594): > 32 µg/mL; MIC (E. faecalis V583; Enterococcus faecalis, V583, read-out: MIC E. faecalis V583): > 32 µg/mL; MIC (E. faecium D25; Enterococcus faecium, D25, read-out: MIC D25): 1 µg/mL (≈ 0.69 µM); MIC (E. faecium strain C68 [1]; Enterococcus faecium, C68, 18 h, read-out: MIC EF C68): > 32 µg/mL; MIC (E. faecium D24; Enterococcus faecium, D24, read-out: MIC D24): 1 µg/mL (≈ 0.69 µM); MIC (E. faecium E007; E007, read-out: MIC E007): 1 µg/mL (≈ 0.69 µM); MIC (E. faecium D29; Enterococcus faecium, D29, read-out: MIC D29): 1 µg/mL (≈ 0.69 µM); MIC (E. faecium D14; Enterococcus faecium, D14, read-out: MIC D14): 2 µg/mL (≈ 1.38 µM); MIC (S. aureus MW2; Staphylococcus aureus, MRSA, read-out: MIC S. aureus MW2): 1 µg/mL (≈ 0.69 µM); MIC (E. faecium WC176): 16 µg/mL (≈ 11 µM)
4 | LRWLWRRRWLWR-NH2 [Peptide 3L] | > 32 | > 32 | > 32 | 16 | 16 | >32 | 8 | 16 | 4 | > 32 | 16.145 | 
5 | RLWLWRRRWLWR-NH2 [Peptide 4L] | > 32 | > 32 | > 32 | 4 | 4 | >32 | 8 | 8 | 4 | > 32 | 18.377 | 
6 | RRWLWRL-NH2 [Peptide 2L] | > 32 | > 32 | > 32 | >32 | >32 |  |  |  |  | > 32 | 13.321 | 
7 | RRWLWRRLWLWR-NH2 [Peptide 7L] | > 32 | > 32 | > 32 | 4 | 4 | 8 | 4 | 4 | 2 | > 32 | 16.290 | MBEC50 (established biomass) [5]: failed to achieve an MBEC50; MIC D25 (E. faecium D25; D25, 18 h): 4 µg/mL; MIC D24 (E. faecium D24; D24, 18 h): 4 µg/mL; MIC E007 (E. faecium E007; E007, 18 h): 4 µg/mL; MIC D29 (E. faecium D29; D29, 18 h): 8 µg/mL; MIC D14 (E. faecium D14; D14, 18 h): 8 µg/mL; concentration killing 50% of live bacteria cells in established biofilms ([6]; strain E007, 24 h established biofilms, XTT): > 32 µg/mL; established biomass disrupted ([6]; strain E007, at 32 µg/mL): 25–30%; MIC WC176 (E. faecium WC176; WC176, 18 h): 16 µg/mL
8 | RRWQWRLLLL-NH2 [Peptide 1L] | > 32 | > 32 | > 32 | 16 | 16 | 32 | 8 | 4 | 4 | > 32 | 18.083 | 
